These results are taken from ChEMBL document CHEMBL3400100, “Streptococcus mutans sortase A inhibitory metabolites from the flowers of Sophora japonica” (Bioorg Med Chem Lett, 2015).

Data set [1] is described as follows: Inhibition of Streptococcus mutans OMZ65 sortase A lacking N-terminal membrane anchor domain (1 to 40 amino acids) expressed in Escherichia coli TOP10 using Dabcyl-QALPETGEE-Edans substrate incubated for 1 hr by fluorescence spectrophotometry.
Data set [2] has as its system Streptococcus mutans. Nature of the data set: Toxicity against Streptococcus mutans assessed as inhibition of microbial growth. Type of data set: organism-based. The conditions noted are these: in vitro.
Data set [3] concerns Streptococcus mutans. Nature of the data set: Inhibition of sortase A in Streptococcus mutans NG8 assessed as reduction in saliva-induced bacterial aggregation at 58.6 to 234.4 uM by spectrophotometry.

pIC50: −log10 of the molar value.

As usually defined, the pIC50 is the IC50 on a negative log10 scale, so that one unit is a factor of ten.

In turn, `COc1cc(/C=C/C(=O)CC(=O)/C=C/c2ccc(O)c(OC)c2)ccc1O` [CURCUMIN] had a pIC50 in data set [1] of 4.04. Further, in the data set on Streptococcus mutans [2], the MIC was more than 542.9 µM.

As to Para-Hydroxymercuribenzoic acid, the pIC50 in data set [1] is 3.95.

`COc1cc(-c2oc3cc(O)cc(O)c3c(=O)c2O[C@@H]2O[C@H](CO[C@@H]3O[C@@H](C)[C@H](O)[C@@H](O)[C@H]3O)[C@@H](O)[C@H](O)[C@H]2O)ccc1O` [NARCISSIN] had a pIC50 in data set [1] of 4.21. Moreover, the MIC with Streptococcus mutans [2] is more than 320.2 µM.

`C[C@@H]1O[C@@H](OC[C@H]2O[C@@H](Oc3c(-c4ccc(O)cc4)oc4cc(O)cc(O)c4c3=O)[C@H](O)[C@@H](O)[C@@H]2O)[C@H](O)[C@H](O)[C@H]1O` [NICOTIFLOROSIDE]: the pIC50 in data set [1] was 4.22. In the data set on Streptococcus mutans [2], the MIC was more than 336.4 µM.

The compound `Cc1occc(=O)c1O[C@@H]1O[C@H](COC(=O)CC(C)(O)CC(=O)O)[C@@H](OC(=O)/C=C\c2ccc(O)cc2)[C@H](O)[C@H]1O` (some centres not stated) showed a negative-log IC50 (pIC50) in data set [1] of 4.23. In addition, the MIC in the data set with Streptococcus mutans [2] was more than 345.9 µM. Moreover, the inhibition result in the data set with Streptococcus mutans [3] is “Dose-dependent effect”.

For the compound `Cc1occc(=O)c1O[C@@H]1O[C@H](COC(=O)CC(C)(O)CC(=O)O)[C@@H](OC(=O)/C=C/c2ccc(O)cc2)[C@H](O)[C@H]1O` (some centres not stated), the pIC50 in data set [1] is 4.03. The MIC with Streptococcus mutans [2] was more than 345.9 µM.
